The text below walks through data of patent publication US20030224522A1, “Methods for delivering nucleic acid molecules into cells and assessment thereof” (priority 2002, published 2003).

Assay [1] concerns LM(tk−) cells. Nature of the assay: ACes transfection at time points after release of nocodazole block, hygromycin selection and FISH. Format: cell-based, murine. The settings on record: nocodazole synchronized colonies (20/47), LipofectAMINE PLUS or Superfect; asynchronous control colonies 4% (2/49). The procedure: Cells were plated at 7.5×10^5 cells per well of a 6-well plate 24 hours prior to nocodazole treatment. The cells were incubated with nocodazole for 6 hours. After the 6 hour incubation, wells were hosed with medium to dislodge the suspension fraction of cells. Nocodazole containing medium was removed and the wells were washed with fresh medium. The wash medium was aspirated and fresh medium was replaced in the wells. To determine the optimum time point for transfection, different cell samples were transfected at different time points after release of the nocodazole block. The time points were 0, 2, 4, 6, 8, 12, and 16 hours after release of the nocodazole block. Following transfer, the cells were plated and transfectants identified using hygromycin selection. Highest colony formations were achieved when transfection occurred 2-4 hours post nocodazole block. At these time points, cell population distribution included approximately 10% of cells in G0/G1, 20% in S, and 70% in G2/M. Transfectants were analyzed using FISH to determine the quality of the transferred material. […]
Cells were synchronized by nocodazole treatment (100 ng/ml final concentration) for 6 hours prior to transfection. […] Twenty-four hours post-transfection the cells are counted (Coulter counter) and a small fraction are plated for a modified toxicity assay. […]

Assay [2] concerns LM(tk−) cells. Nature of the assay: Nocodazole cell synchronization, cell cycle kinetics by propidium iodide flow cytometry. Format: cell-based, murine. The procedure: To determine the optimum blocking concentration of nocodazole, nocodazole concentrations were titrated against LM(tk−) cells to generate a dose response. Timing of the optimal blocking concentration (100 ng/ml) was then assessed over 0-1 6 hours using flow cytometry. To determine the cell cycle kinetics of LM(tk−) cell populations at different time points, cells were stained with propidium iodide (PI) at a concentration of […] for 1×10^6 cells and analyzed with a FACS Vantage SE (Becton Dickinson Immunocytometry Systems, San Jose, Calif.) equiped with an argon laser tuned to 488 nm at 200 mW. Whole intact cells were gated on forward scatter (FSC, representing cell size) versus side scatter (SSC, representing internal granularity) and PI emission was detected with a 630/22 filter. A list mode file was generated with a minimum of 20,000 whole intact cells analyzed. The proportion of cells in G0-G1, S and G2-M were documented for each time point. Optimum cell-cycle arrest at the G2/M boundary was achieved by incubating cells with 100 ng/ml nocodazole in serum containing DMEM medium for 6 hours. After 6 hours of nocodazole exposure at 100 ng/ml, approximately 20% of cells were in S phase and 50% of cells were at G2/M. Cell cycle kinetics were again monitored by flow cytometry upon release of the nocodazole block and at frequent intervals over a 16 hour period.

The test system of assay [3] is LM(tk−) cells. Nature of the assay: Thymidine cell synchronization, cell cycle kinetics by flow cytometry. In kind it is cell-based, murine. The settings on record: 16 hours incubation, dose range 1-20 mM tested. The procedure:
To determine the optimum parameters for cell cycle synchronization, thymidine was administered to cell samples in a dose range of 1-20 mM. Samples were analyzed by flow cytometry to determine the cell cycle kinetics of LM(tk−) cell populations at frequent intervals over a 16 hour time period. Optimum synchronization of cells in G0/G1 was achieved by incubating LM(tk−) cells with 10 mM thymidine in serum containing DMEM medium for 16 hours. The thymidine block was released by washing the cells twice in serum-free medium and replacing the medium with complete medium containing 24 μM 2′-deoxycytidine 5′ mono-phosophate (dCMP; Sigma D-7750, St. Louis, Mo.). Cell cycle kinetics were again monitored by flow cytometry upon release of the thymidine block and at frequent intervals over a 16 hour period.

For a further assay, the system named is A9 cells. Kind of assay: Ultrasound mediated transfection of GFP chromosomes with Saint-2. In kind it is cell-based, murine. Conditions: of the cells remaining on the glass. The procedure:
A9 cells were grown at 37° C., 5% CO2, in DMEM with 4500 mg/l Glucose, with Pyridoxine/HCL, 10% Fetal Calf Serum, 10000 μg/ml Streptomycin and 10000 μg/ml Penicillin (GIBCO BRL, Paisley, UK). Between 2×10^5 and 5×10^5 cells were plated onto sterile glass slides in a 12 well plate 24 h before usage.
Cells were transfected with GFP chromosomes using the procedure of Example 6A except that CHO-KI medium was replaced with A9 medium.

Another assay relates to Hep-G2 cells. The description is as above. Format: cell-based, human. Conditions: of the cells remaining on the slide. How it is done:
Hep-G2 cells were grown at 37° C., 5% CO2, in DMEM with 4500 mg/l Glucose, with Pyridoxine/HCL, 10% Fetal Calf Serum, 10000 μg/ml Streptomycin and 1000 μg/ml Penicillin. Between 2×10^5 and 5×10^5 cells were plated onto sterile glass slides in a 12 wells plate 24 hours before usage.
Cells were transfected with GFP chromosomes using the procedure of Example 6A except that the CHO—KI medium was replaced with Hep-G2 medium.

For the next assay, the system named is CHO-KI cells. The assay is described as above. In kind it is cell-based. The procedure:
CHO-KI cells were grown at 37°, 5% CO2, in CHO-S-SFM 2 Medium, (Gibco BRL, Paisley, UK). Between 2×10^5 and 5×10^5 cells were plated onto sterile glass slides in a 12 well plate 24 h before usage.
Transfection of the cells was performed as follows. The medium was removed from the cells, and the cells were washed twice with HBSS (Hanks balanced salt solution without Phenol Red (Gibco BRL, UK)) at 37° C. Then 500 μl HBSS at 37° C. was added per well, followed by 10 μl of the freshly prepared vesicle solution (prepared in Example 2) to yield a final concentration of 23.3 nmol/ml.
Alternatively, the medium was removed from the cells, and the cells were washed twice with HBSS. 500 μl HBSS/lipid solution at 37° C. was added to each well. The HBSS/lipid solution was prepared by adding 1 μl ethanolic lipid solution (prepared as described above) to 500 μHBSS under vigorous vortexing. The plates were then sealed with parafilm tape and shaken gently at room temperature for 30 min. After incubation, ultrasound was applied at an output energy of 0.5 Watt/cm^2 for 60 sec through the bottom of the plate to the cells. The ultrasound was mediated by an ultrasound gel (Aquasonic 100, Parker, N.J.) between transducer and plate. The ultrasound was applied with an ImaRx Sonoporator 100. Immediately after applying ultrasound one GFP chromosome per seeded cell (2×10^5-5×10^5) (prepared in Example 1) was added. The plate was then sealed again and shaken gently for 1 h at room temperature. After the incubation 1 ml medium (CHO—S—SFM 2 with 10% Fetal Calf Serum, 10000 μg/ml Penicillin and 10000 μg/ml Streptomycin Gibco BRL, Paisley, UK) was added to each well and the cells were incubated for 24 h at 37° C. The cells were then washed with medium and 1 ml medium was added and the cells were incubated at 37° for another 24 h. Detection of expressed genes was then assayed by microscopy or detection of the transferred chromosome by FISH analysis.
The negative control was performed in the same way, but with no chromosomes added to the cells.

[4] abbreviates: 2-4 hours post nocodazole block.
Where [5] appears, read: after 6 hours of nocodazole exposure at 100 ng/ml.

With `COC(=O)Nc1nc2ccc(C(=O)c3cccs3)cc2[nH]1` [nocodazole], the “percentage of colonies where at least 50% of the cells had an intact ACes (FISH)” value with LM(tk−) cells [1] worked out at 43%. In addition, in the assay with LM(tk−) cells [2] (setting [4]), the “cells in G0/G1” value is “approximately 10%”, the “cells in G2/M” value is reported as roughly 70% and the “cells in S” value is recorded as roughly 20%. In addition, the “optimal blocking concentration for cell-cycle arrest at the G2/M boundary” value with LM(tk−) cells [2] (6 hours incubation, serum containing DMEM) came to 100 ng/mL. In addition, in the assay on LM(tk−) cells [2] (setting [5]), the “cells at G2/M” value is listed as roughly 50% and the “cells in S phase” value is “approximately 20%”.

For the compound `Cc1cn([C@H]2C[C@H](O)[C@@H](CO)O2)c(=O)[nH]c1=O` [thymidine], the “concentration for optimum synchronization of cells in G0/G1” value with LM(tk−) cells [3] turned out to be 10 mM.

For the compound `CCCCCCCCC=CCCCCCCCCC(CCCCCCCCC=CCCCCCCCC)c1cc[n+](C)cc1.[Cl-]` (stereo not shown) [Saint-2, 1-methyl-4-(1-octadec-9-enyl-nonadec-10-enylenyl) pyridinium chloride], the “remaining cells positive for green fluorescent protein expression” value was found to be 50% with A9 cells; 80% in the assay with Hep-G2 cells; 10% with CHO-KI cells (after 48 hours, of the cells remaining on the slide). For the same compound, the “GFP positive cells, of original population” value in the assay on CHO-KI cells (after 48 hours) was determined as 3%. Also, the “cells containing an intact artificial chromosome (FISH)” value in the assay on CHO-KI cells (after culturing for two weeks) came out at 1.4%.
